Reference: patent publication US11130741B2 (Bioimics AB, priority 2016, dated 2021)
Converted amounts (≈) assume the structure as drawn.

Key:
[1] = system: E. coli RNase P RNA, M1 RNA; assay: Inhibition of bacterial RNase P activity, IC50 determination (cleavage of pATSerUG by M1 RNA); type: biochemical; conditions: NI = No inhibition
[2] = system: Escherichia coli (ATCC25922); assay: MIC, broth microdilution (CLSI), Escherichia coli ATCC25922; conditions: ATCC25922, read-out: E. coli MIC, Table 15, NI = No inhibition
[3] = system: Staphylococcus aureus (ATCC25923); assay: MIC, broth microdilution (CLSI), Staphylococcus aureus ATCC25923; conditions: ATCC25923, read-out: S. aureus ("Clinical") MIC

Row | Structure (SMILES) | IC50 [1] | MIC [2] | MIC [3] | IC50 ([1]; trifluoroacetic Acid Salt)
1 | NC1CC(C(=O)Nc2cc(C(F)(F)F)cc3c2Nc2ccccc2S3)C1 (stereo not drawn) [compound 175, 3-amino-N-(3-(trifluoromethyl)-10H-phenothiazin-1-yl)cyclobutane-carboxamide] | 80 µM | 49 µg/mL (≈ 129 µM) | 24 µg/mL (≈ 63.3 µM) | –
2 | CN(C)CCCN1c2ccccc2Sc2cc(-c3cc4cc(CN)ccc4[nH]3)ccc21 [compound 181, 3-(3-(5-(aminomethyl)-1H-indol-2-yl)-10H-phenothiazin-10-yl)-N,N-dimethylpropan-1-amine] | > 100 µM | 27 µg/mL (≈ 63 µM) | 7 µg/mL (≈ 16.3 µM) | –
3 | N[C@H]1CCC[C@H](CNc2cc(C(F)(F)F)cc3c2Nc2ccccc2S3)C1.O=C(O)C(F)(F)F [compound 187, N-(((1S,3S)-3-aminocyclohexyl)methyl)-3-(trifluoromethyl)-10H-phenothiazin-1-amine 2,2,2-trifluoroacetate] | 53 µM | 16 µg/mL | 4 µg/mL | –
4 | NC1CCCC(c2nc3cc(C(F)(F)F)cc4c3n2-c2ccccc2S4)C1 (stereo not drawn) [compound 191, 3-(4-(trifluoromethyl)imidazo[4,5,1-kl]phenothiazin-1-yl)cyclohexan-amine] | 19 µM | 50 µg/mL (≈ 128 µM) | 6 µg/mL (≈ 15.4 µM) | –
5 | NCCN1CC(C(=O)Nc2cc(C(F)(F)F)cc3c2Nc2ccccc2S3)C1 [compound 196] | > 100 µM | 52 µg/mL (≈ 127 µM) | 26 µg/mL (≈ 63.7 µM) | –
6 | NCCN1CCC(C(=O)Nc2cc(C(F)(F)F)cc3c2Nc2ccccc2S3)CC1 [compound 199] | 65 µM | 28 µg/mL (≈ 64.1 µM) | 28 µg/mL (≈ 64.1 µM) | –
7 | NCCN1CCCC(C(=O)Nc2cc(C(F)(F)F)cc3c2Nc2ccccc2S3)C1 (stereo not drawn) [compound 203] | 4 µM | 14 µg/mL (≈ 32.1 µM) | 14 µg/mL (≈ 32.1 µM) | –
8 | NCCN1CCC(Nc2cc(C(F)(F)F)cc3c2Nc2ccccc2O3)CC1 [compound 206, N-(1-(2-aminoethyl)piperidin-4-yl)-3-(trifluoromethyl)-10H-phenoxazin-1-amine] | 89 µM | 50 µg/mL (≈ 127 µM) | 25 µg/mL (≈ 63.7 µM) | –
9 | NNC(=O)c1cc(NC2CCNCC2)c2c(c1)Sc1ccccc1N2.O=C(O)C(F)(F)F [compound 210, 1-(piperidin-4-ylamino)-10H-phenothiazine-3-carbohydrazide 2,2,2-trifluoroacetate salt] | 95 µM | > 100 µg/mL | 60 µg/mL | –
10 | FC(F)(F)c1cc(NC2CCNCC2)c2c(c1)Sc1cc(-c3cc4ccccc4[nH]3)ccc1N2.O=C(O)C(F)(F)F [compound 212, 7-(1H-indol-2-yl)-N-(piperidin-4-yl)-3-(trifluoromethyl)-10H-phenothiazin-1-amine trifluoroacetic Acid Salt] | – | > 100 µg/mL | 19 µg/mL | 5 µM
11 | N#Cc1cc(NC2CCN(CCN)CC2)c2c(c1)Sc1ccccc1N2 [compound 215, 1-((1-(2-aminoethyl)piperidin-4-yl)amino)-10H-phenothiazine-3-carbonitrile] | > 100 µM | 47 µg/mL (≈ 129 µM) | 23 µg/mL (≈ 62.9 µM) | –
12 | NCCN(CCN)CCN1CCC(Nc2cc(C(F)(F)F)cc3c2Nc2ccccc2S3)CC1.O=C(O)C(F)(F)F [compound 216, N1-(2-aminoethyl)-N1-(2-(4-((3-(trifluoromethyl)-10H-phenothiazin-1-yl)amino)piperidin-1-yl)ethyl)ethane-1,2-diamine 2,2,2-trifluoroacetate salt] | 5 µM | 19 µg/mL | 5 µg/mL | –
13 | CN1c2ccccc2Sc2cc(C(F)(F)F)cc(NC3CCN(CCN)CC3)c21 [compound 218, N-(1-(2-aminoethyl)piperidin-4-yl)-10-methyl-3-(trifluoromethyl)-10H-phenothiazin-1-amine] | 68 µM | 7 µg/mL (≈ 16.6 µM) | 7 µg/mL (≈ 16.6 µM) | –
14 | NCCN1CCCC(CNc2cc(C(F)(F)F)cc3c2Nc2ccccc2S3)C1 (stereo not drawn) [compound 220, N-((1-(2-aminoethyl)piperidin-3-yl)methyl)-3-(trifluoromethyl)-10H-phenothiazin-1-amine] | > 100 µM | 7 µg/mL (≈ 16.6 µM) | 7 µg/mL (≈ 16.6 µM) | –
15 | NCCCN1c2ccccc2Sc2cc(-c3cc4ccccc4n3CCN)ccc21.O=C(O)C(F)(F)F.O=C(O)C(F)(F)F [compound 222, 3-(3-(1-(2-aminoethyl)-1H-indol-2-yl)-10H-phenothiazin-10-yl)propan-1-amine bis(2,2,2-trifluoroacetate) salt] | 18 µM | 5 µg/mL | 3 µg/mL | –
16 | CNCCN1CCC(Nc2cc(CN)cc3c2Nc2ccccc2S3)CC1.O=C(O)C(F)(F)F [compound 224, 3-(aminomethyl)-N-(1-(2-(methylamino)ethyl)piperidin-4-yl)-10H-phenothiazin-1-amine 2,2,2-trifluoroacetate salt] | 68 µM | 64 µg/mL | 64 µg/mL | –
17 | NCCN1CCC(Nc2cc(C(F)(F)F)cc3c2Nc2ccc(CN)cc2S3)CC1.O=C(O)C(F)(F)F.O=C(O)C(F)(F)F [compound 227, N-(1-(2-Aminoethyl)piperidin-4-yl)-7-(aminomethyl)-3-(trifluoromethyl)-10H-phenothiazin-1-amine bis(2,2,2-trifluoroacetate)] | 7 µM | 43 µg/mL | 5 µg/mL | –
18 | FC(F)(F)c1cc2c3c(c1)nc(C1CCNCC1)n3-c1ccccc1S2 [compound 232, 1-(piperidin-4-yl)-4-(trifluoromethyl) imidazo[4,5,1-kl]phenothiazine] | 29 µM | 24 µg/mL (≈ 63.9 µM) | 6 µg/mL (≈ 16 µM) | –
19 | NCCN1CCC(c2nc3cc(C(F)(F)F)cc4c3n2-c2ccccc2S4)CC1 [compound 239, 2-(4-(4-(Trifluoromethyl)imidazo[4,5,1-kl]phenothiazin-1-yl)piperidin-1-yl)ethanamine] | 17 µM | 13 µg/mL (≈ 31.1 µM) | 7 µg/mL (≈ 16.7 µM) | –

The next lines start with results.

Row | IC50 [1] | MIC [2] | MIC [3] | Structure (SMILES) | IC50 ([1]; trifluoroacetic Acid Salt)
20 | 87 µM | 14 µg/mL (≈ 36.9 µM) | 7 µg/mL (≈ 18.4 µM) | NC1CCC(Nc2cc(C(F)(F)F)cc3c2Nc2ccccc2S3)CC1 (stereo not drawn) [compound 180, N1-(3-(trifluoromethyl)-10H-phenothiazin-1-yl)cyclohexane-1,4-diamine] | –
21 | 61 µM | 25 µg/mL (≈ 63.5 µM) | 3 µg/mL (≈ 7.62 µM) | N[C@H]1CCC[C@@H](CNc2cc(C(F)(F)F)cc3c2Nc2ccccc2S3)C1 [compound 182, N-(((1R,3S)-3-aminocyclohexyl)methyl)-3-(trifluoromethyl)-10H-phenothiazin-1-amine] | –
22 | 11 µM | 21 µg/mL (≈ 63.3 µM) | 5 µg/mL (≈ 15.1 µM) | Clc1cc(NC2CCNCC2)c2c(c1)Sc1ccccc1N2 [compound 184, 3-chloro-N-(piperidin-4-yl)-10H-phenothiazin-1-amine] | –
23 | > 100 µM | 23 µg/mL (≈ 62.9 µM) | 12 µg/mL (≈ 32.8 µM) | O=C(Nc1cc(C(F)(F)F)cc2c1Nc1ccccc1S2)C1CNC1 [compound 188, N-(3-(trifluoromethyl)-10H-phenothiazin-1-yl)azetidine-3-carboxamide] | –
24 | > 100 µM | 52 µg/mL (≈ 128 µM) | 3 µg/mL (≈ 7.36 µM) | NC[C@H]1CCC[C@H](CNc2cc(C(F)(F)F)cc3c2Nc2ccccc2S3)C1 [compound 189, N-(((1S,3S)-3-(aminomethyl)cyclohexyl)methyl)-3-(trifluoromethyl)-10H-phenothiazin-1-amine] | –
25 | 82 µM | 26 µg/mL (≈ 63.8 µM) | 3 µg/mL (≈ 7.36 µM) | CC(Nc1cc(C(F)(F)F)cc2c1Nc1ccccc1S2)C1CCCC(N)C1 (stereo not drawn) [compound 190, N-(1-(3-aminocyclohexyl)ethyl)-3-(trifluoromethyl)-10H-phenothiazin-1-amine] | –
26 | 180 µM | 22 µg/mL (≈ 65.2 µM) | 5 µg/mL (≈ 14.8 µM) | FC(F)(F)c1cc(NC2CNC2)c2c(c1)Sc1ccccc1N2 [compound 193, N-(azetidin-3-yl)-3-(trifluoromethyl)-10H-phenothiazin-1-amine] | –
27 | 8 µM | 12 µg/mL (≈ 31.6 µM) | 3 µg/mL (≈ 7.91 µM) | NC1CCCC(Nc2cc(C(F)(F)F)cc3c2Nc2ccccc2S3)C1 (stereo not drawn) [compound 204, N1-(3-(trifluoromethyl)-10H-phenothiazin-1-yl)cyclohexane-1,3-diamine] | –
28 | 109 µM | 50 µg/mL (≈ 127 µM) | 25 µg/mL (≈ 63.5 µM) | O=C(Nc1cc(C(F)(F)F)cc2c1Nc1ccccc1S2)C1CCNCC1 [compound 207, N-(3-(trifluoromethyl)-10H-phenothiazin-1-yl)piperidine-4-carboxamide] | –
29 | 258 µM | 24 µg/mL (≈ 63.1 µM) | 12 µg/mL (≈ 31.5 µM) | NCCN1CC(Nc2cc(C(F)(F)F)cc3c2Nc2ccccc2S3)C1 [compound 208, N-(1-(2-aminoethyl)azetidin-3-yl)-3-(trifluoromethyl)-10H-phenothiazin-1-amine] | –
30 | > 100 µM | 24 µg/mL (≈ 64 µM) | 12 µg/mL (≈ 32 µM) | NCCN1CCC(Nc2cc(Cl)cc3c2Nc2ccccc2S3)CC1 [compound 214, N-(1-(2-aminoethyl)piperidin-4-yl)-3-chloro-10H-phenothiazin-1-amine] | –
31 | > 100 µM | 24 µg/mL (≈ 63.2 µM) | 6 µg/mL (≈ 15.8 µM) | FC(F)(F)c1cc(NC2CCCNCC2)c2c(c1)Sc1ccccc1N2 (stereo not drawn) [compound 221, N-(azepan-4-yl)-3-(trifluoromethyl)-10H-phenothiazin-1-amine] | –
32 | 24 µM | 6 µg/mL (≈ 15 µM) | 3 µg/mL (≈ 7.5 µM) | FC(F)(F)c1cc(NC2CCNCC2)c2c(c1)Sc1cc(Cl)ccc1N2 [compound 223, 7-chloro-N-(piperidin-4-yl)-3-(trifluoromethyl)-10H-phenothiazin-1-amine] | –
33 | > 100 µM | 7 µg/mL (≈ 16.6 µM) | 3 µg/mL (≈ 7.1 µM) | NCCN1CCCC(Nc2cc(C(F)(F)F)cc3c2Nc2ccccc2S3)CC1 (stereo not drawn) [compound 225, N-(1-(2-aminoethyl)azepan-4-yl)-3-(trifluoromethyl)-10H-phenothiazin-1-amine] | –
34 | 23 µM | 14 µg/mL (≈ 31.6 µM) | 4 µg/mL (≈ 9.03 µM) | NCCN1CCC(Nc2cc(C(F)(F)F)cc3c2Nc2ccc(Cl)cc2S3)CC1 [compound 226, N-(1-(2-Aminoethyl)piperidin-4-yl)-7-chloro-3-(trifluoromethyl)-10H-phenothiazin-1-amine] | –
